# Experimental data from PMC11314561, “Design and Synthesis of Novel Aminoindazole-pyrrolo[2,3-b]pyridine Inhibitors of IKKα That Selectively Perturb Cellular Non-Canonical NF-κB Signalling” (Molecules, 2024).
# Assays:
# Assay in all cases: kinase panel
# Type in all cases: biochemical
# [1] = target: T1, IRAK4(h) (Homo sapiens, UniProt Q9NWZ3)
# T1 sequence (Q9NWZ3 1-460): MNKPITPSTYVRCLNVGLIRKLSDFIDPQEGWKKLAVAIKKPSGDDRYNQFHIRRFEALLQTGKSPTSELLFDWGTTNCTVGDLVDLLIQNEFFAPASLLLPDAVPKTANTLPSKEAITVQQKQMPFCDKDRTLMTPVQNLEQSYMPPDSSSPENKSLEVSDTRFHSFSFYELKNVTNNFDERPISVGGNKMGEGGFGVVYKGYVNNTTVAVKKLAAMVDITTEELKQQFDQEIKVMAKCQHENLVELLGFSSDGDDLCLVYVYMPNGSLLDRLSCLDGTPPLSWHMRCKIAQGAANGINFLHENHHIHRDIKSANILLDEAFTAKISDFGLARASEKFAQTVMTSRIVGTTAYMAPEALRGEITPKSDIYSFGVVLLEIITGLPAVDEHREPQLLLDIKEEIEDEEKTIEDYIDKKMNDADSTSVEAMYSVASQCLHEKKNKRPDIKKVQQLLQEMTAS
# How it was run: (§1)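 Three compounds in the series were profiled against a panel of 231 kinases, and activity is reported as % inhibition. For one compound, a subset of 98 kinases was selected on the basis of its structural similarity to another series member.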
# [2] = target: CaMKIIδ(h) (Homo sapiens, UniProt Q13557)
# How it was run: as §1
# [3] = target: PKCα(h) (Homo sapiens, UniProt P17252)
# How it was run: as §1
# [4] = target: TrkB(h) (Homo sapiens, UniProt Q16620)
# How it was run: as §1
# [5] = target: CDK1/cyclinB(h) (Homo sapiens, UniProt P06493)
# How it was run: as §1
# [6] = target: CHK2(h) (Homo sapiens, UniProt O96017)
# How it was run: as §1
# [7] = target: JNK1α1(h) (Homo sapiens, UniProt P45983)
# How it was run: as §1
# [8] = target: PRK2(h) (Homo sapiens, UniProt Q16513)
# How it was run: as §1
# [9] = target: T2, Aurora-C(h) (Homo sapiens, UniProt Q9UQB9)
# T2 sequence (Q9UQB9 1-309): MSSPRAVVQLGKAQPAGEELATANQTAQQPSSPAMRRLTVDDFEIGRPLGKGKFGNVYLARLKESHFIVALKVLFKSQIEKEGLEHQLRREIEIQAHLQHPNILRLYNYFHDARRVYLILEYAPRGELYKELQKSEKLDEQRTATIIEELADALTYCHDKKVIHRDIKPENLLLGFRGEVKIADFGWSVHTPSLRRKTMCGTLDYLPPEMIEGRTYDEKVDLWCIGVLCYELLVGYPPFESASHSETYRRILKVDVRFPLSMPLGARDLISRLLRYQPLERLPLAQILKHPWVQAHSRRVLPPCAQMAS
# How it was run: as §1
# [10] = target: ROCK-I(h) (Homo sapiens, UniProt Q13464)
# How it was run: as §1
# [11] = target: TrkA(h) (Homo sapiens, UniProt P04629)
# How it was run: as §1
# [12] = target: ErbB4(h) (Homo sapiens, UniProt Q15303)
# How it was run: as §1
# [13] = target: CK1δ(h) (Homo sapiens, UniProt P48730)
# How it was run: as §1
# [14] = target: T3, Flt3(h) (Homo sapiens, UniProt P36888)
# T3 sequence (P36888 27-993): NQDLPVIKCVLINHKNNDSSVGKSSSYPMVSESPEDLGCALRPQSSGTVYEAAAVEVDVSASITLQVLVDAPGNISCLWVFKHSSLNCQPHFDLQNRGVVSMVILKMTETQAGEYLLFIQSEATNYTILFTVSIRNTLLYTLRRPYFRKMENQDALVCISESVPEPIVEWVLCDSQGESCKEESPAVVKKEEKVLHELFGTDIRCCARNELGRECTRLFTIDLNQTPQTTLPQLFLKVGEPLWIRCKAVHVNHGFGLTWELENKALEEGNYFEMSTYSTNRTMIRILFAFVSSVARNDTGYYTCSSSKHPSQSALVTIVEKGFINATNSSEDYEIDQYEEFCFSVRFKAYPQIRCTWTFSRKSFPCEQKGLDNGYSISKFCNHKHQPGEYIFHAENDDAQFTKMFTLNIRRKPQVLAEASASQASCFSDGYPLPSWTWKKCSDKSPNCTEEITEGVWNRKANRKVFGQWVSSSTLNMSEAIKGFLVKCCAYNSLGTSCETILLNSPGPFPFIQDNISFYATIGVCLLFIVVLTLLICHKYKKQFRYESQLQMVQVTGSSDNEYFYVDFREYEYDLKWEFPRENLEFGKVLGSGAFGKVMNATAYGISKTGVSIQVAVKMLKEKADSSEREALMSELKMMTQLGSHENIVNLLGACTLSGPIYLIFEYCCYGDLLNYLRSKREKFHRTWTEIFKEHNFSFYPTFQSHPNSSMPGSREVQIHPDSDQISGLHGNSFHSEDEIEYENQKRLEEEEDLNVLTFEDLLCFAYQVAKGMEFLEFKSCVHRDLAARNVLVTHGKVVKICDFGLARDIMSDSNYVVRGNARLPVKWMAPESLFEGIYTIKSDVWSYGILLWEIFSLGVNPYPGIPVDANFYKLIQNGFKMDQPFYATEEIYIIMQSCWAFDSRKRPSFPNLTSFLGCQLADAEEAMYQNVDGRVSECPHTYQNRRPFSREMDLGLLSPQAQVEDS
# How it was run: as §1
# [15] = target: PDGFRβ(h) (Homo sapiens, UniProt P09619)
# How it was run: as §1
# [16] = target: mTOR(h) (Homo sapiens, UniProt P42345)
# How it was run: as §1
# [17] = target: Flt4(h) (Homo sapiens, UniProt P35916)
# How it was run: as §1
# [18] = target: IRAK1(h) (Homo sapiens, UniProt P51617)
# How it was run: as §1
# [19] = target: JAK2(h) (Homo sapiens, UniProt O60674)
# How it was run: as §1
# PDGFRβ(h), sequence (P09619 33-1106): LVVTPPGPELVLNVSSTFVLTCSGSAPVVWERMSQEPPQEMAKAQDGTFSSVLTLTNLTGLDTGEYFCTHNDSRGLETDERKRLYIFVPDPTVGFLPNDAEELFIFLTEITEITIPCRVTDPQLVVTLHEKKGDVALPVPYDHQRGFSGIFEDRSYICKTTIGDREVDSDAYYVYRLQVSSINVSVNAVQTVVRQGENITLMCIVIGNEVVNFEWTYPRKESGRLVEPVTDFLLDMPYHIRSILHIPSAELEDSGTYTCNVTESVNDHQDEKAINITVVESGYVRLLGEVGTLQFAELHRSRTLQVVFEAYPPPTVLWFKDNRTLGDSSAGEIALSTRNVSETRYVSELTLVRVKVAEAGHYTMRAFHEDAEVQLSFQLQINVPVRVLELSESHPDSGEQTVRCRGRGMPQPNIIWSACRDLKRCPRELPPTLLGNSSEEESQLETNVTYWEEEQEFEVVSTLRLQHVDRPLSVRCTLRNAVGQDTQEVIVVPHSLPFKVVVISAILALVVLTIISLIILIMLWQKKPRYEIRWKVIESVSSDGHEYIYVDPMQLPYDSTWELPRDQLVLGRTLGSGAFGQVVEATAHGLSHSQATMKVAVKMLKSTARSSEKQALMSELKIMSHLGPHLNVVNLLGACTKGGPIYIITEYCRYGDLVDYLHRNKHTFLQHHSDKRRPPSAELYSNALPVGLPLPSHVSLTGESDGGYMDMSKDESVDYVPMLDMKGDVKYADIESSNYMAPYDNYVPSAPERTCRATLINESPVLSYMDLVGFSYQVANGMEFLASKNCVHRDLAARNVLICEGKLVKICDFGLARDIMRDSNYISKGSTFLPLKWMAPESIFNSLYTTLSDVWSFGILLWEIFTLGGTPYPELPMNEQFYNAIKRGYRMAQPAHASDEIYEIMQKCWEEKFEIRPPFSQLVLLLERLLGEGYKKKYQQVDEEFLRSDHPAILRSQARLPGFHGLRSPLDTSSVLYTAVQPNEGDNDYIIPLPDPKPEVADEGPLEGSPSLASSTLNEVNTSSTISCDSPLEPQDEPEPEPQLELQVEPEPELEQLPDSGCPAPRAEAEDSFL
# TrkB(h), sequence (Q16620 32-822): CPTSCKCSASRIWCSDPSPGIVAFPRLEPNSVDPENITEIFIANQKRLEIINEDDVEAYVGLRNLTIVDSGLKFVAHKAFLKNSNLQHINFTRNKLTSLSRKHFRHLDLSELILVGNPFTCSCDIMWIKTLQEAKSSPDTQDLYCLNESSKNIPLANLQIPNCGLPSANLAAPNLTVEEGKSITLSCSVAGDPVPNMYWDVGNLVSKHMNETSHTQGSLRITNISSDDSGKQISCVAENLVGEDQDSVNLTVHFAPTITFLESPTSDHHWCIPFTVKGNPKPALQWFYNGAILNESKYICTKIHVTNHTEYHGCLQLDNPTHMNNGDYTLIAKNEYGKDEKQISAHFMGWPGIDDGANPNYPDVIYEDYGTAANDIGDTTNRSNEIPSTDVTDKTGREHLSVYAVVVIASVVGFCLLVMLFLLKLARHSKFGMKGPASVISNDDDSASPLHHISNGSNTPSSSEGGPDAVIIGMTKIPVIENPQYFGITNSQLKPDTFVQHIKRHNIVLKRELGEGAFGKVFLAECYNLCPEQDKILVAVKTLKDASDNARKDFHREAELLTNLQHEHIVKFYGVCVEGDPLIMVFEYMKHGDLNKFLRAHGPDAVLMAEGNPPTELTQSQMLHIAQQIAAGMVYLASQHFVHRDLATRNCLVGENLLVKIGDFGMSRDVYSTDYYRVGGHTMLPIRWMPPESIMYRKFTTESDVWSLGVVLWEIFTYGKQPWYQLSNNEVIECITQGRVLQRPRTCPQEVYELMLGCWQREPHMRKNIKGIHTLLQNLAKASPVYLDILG
# IRAK1(h), sequence (P51617 whole entry): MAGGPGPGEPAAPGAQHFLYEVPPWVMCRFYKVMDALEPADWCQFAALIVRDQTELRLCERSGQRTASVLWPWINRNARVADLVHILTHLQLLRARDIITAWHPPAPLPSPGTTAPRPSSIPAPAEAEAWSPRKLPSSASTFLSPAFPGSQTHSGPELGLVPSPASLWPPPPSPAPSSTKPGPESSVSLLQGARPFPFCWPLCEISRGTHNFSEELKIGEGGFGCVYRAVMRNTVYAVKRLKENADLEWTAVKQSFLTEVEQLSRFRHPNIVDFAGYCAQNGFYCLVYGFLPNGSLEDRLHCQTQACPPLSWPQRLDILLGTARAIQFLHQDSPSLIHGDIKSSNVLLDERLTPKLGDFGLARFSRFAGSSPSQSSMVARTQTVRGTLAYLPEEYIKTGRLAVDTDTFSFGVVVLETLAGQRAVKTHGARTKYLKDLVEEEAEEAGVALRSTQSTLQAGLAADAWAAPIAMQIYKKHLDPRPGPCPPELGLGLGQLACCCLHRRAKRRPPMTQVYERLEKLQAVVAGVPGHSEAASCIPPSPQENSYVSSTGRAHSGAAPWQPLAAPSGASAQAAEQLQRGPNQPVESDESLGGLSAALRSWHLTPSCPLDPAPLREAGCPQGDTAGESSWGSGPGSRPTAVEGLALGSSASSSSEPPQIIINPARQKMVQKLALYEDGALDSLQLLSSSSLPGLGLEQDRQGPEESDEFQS
# CDK1/cyclinB(h), sequence (P06493 whole entry): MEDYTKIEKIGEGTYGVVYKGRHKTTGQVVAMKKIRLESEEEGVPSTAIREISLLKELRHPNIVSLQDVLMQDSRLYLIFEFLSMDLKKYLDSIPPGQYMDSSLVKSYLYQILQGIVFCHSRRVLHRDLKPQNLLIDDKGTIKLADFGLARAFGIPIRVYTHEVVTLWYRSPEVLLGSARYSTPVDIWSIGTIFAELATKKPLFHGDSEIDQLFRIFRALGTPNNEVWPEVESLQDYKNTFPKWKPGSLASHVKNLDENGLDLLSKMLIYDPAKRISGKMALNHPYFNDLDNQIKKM
# CDK1/cyclinB(h), sequence (P14635 whole entry partner): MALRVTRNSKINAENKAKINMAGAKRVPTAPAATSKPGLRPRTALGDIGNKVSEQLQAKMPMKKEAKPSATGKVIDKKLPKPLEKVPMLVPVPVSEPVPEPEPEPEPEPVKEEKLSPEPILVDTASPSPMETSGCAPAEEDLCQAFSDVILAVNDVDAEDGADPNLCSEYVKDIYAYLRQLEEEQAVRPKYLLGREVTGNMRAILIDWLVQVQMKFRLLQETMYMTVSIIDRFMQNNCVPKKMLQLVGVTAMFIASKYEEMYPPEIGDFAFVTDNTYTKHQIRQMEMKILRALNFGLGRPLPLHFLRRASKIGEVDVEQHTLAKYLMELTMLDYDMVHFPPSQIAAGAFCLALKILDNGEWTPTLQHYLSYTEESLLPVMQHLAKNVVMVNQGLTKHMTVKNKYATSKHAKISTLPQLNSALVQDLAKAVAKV
# ROCK-I(h), sequence (Q13464 whole entry): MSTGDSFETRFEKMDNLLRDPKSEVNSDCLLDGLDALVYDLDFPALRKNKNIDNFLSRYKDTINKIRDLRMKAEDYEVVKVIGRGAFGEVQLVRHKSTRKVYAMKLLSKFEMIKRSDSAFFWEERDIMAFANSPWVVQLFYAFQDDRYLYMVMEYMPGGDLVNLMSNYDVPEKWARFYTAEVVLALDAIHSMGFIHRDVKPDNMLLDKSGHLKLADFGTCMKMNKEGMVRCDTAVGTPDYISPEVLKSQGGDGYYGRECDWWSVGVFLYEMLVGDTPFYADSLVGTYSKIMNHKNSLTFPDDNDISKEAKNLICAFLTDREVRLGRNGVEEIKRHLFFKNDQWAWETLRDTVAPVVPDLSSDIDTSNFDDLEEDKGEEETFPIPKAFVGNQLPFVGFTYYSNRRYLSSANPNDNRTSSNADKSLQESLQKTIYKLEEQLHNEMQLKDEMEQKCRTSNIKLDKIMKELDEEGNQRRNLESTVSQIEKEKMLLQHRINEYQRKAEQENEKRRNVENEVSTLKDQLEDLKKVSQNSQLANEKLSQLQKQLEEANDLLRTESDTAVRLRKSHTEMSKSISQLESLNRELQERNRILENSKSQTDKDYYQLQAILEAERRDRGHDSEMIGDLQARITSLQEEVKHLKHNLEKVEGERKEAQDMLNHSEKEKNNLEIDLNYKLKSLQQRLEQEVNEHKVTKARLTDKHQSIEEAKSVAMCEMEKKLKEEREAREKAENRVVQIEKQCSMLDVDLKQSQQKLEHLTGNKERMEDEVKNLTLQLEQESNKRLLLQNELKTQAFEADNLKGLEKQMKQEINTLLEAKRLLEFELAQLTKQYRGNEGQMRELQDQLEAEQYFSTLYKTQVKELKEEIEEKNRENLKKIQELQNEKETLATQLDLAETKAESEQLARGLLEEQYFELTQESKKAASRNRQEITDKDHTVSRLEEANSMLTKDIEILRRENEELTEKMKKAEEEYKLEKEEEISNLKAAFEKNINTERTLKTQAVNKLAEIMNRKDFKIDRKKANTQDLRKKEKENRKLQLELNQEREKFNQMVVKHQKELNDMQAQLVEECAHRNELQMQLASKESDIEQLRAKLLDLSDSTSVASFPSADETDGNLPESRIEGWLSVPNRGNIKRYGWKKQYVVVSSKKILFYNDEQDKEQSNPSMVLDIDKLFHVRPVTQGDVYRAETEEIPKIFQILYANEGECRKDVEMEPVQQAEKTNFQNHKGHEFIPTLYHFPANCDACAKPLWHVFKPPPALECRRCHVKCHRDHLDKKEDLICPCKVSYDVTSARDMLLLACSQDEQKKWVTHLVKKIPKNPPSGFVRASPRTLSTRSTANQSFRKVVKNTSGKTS
# JNK1α1(h), sequence (P45983 1-384 isoform P45983-2): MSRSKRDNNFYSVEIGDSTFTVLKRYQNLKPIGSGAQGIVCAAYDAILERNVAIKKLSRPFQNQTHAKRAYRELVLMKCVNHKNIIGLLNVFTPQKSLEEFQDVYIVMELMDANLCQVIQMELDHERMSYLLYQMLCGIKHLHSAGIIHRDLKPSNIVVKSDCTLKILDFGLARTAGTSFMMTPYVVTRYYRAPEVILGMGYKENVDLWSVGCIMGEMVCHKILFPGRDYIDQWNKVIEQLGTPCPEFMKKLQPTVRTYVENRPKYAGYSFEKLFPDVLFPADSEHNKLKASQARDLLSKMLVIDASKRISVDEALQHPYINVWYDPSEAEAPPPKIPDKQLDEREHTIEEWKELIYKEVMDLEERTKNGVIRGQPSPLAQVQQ
SMILES,inhibition at 1 µM [1],inhibition at 1 µM [2],inhibition at 1 µM [3],inhibition at 1 µM [4],inhibition at 1 µM [5],inhibition at 1 µM [6],inhibition at 1 µM [7],inhibition at 1 µM [8],inhibition at 1 µM [9],inhibition at 1 µM [10],inhibition at 1 µM [11],inhibition at 1 µM [12],inhibition at 1 µM [13],inhibition at 1 µM [14],inhibition at 1 µM [15],inhibition at 1 µM [16],inhibition at 1 µM [17],inhibition at 1 µM [18],inhibition at 1 µM [19]
Nc1n[nH]c2ccc(-c3ccnc4[nH]c(-c5ccccc5)cc34)cc12 [Compound 4],25%,80%,5%,65%,101%,28%,80%,85%,90%,13%,71%,20%,58%,102%,14%,10%,97%,89%,88%
Nc1n[nH]c2ccc(-c3ccnc4[nH]c(-c5cccc(OCc6ccccc6)c5)cc34)cc12 [Compound 5r [SU1261]],3%,61%,23%,-37%,77%,13%,12%,56%,32%,28%,29%,14%,14%,46%,1%,8%,63%,42%,73%
Nc1n[nH]c2ccc(-c3ccnc4[nH]c(-c5ccnc(OCc6ccccc6)c5)cc34)cc12 [Compound 6g [SU1349]],-8%,37%,-1%,-34%,58%,-5%,25%,19%,19%,10%,-11%,-5%,5%,36%,-14%,0%,43%,37%,35%
